From patent EP4707280A1, “1,4-CINEOLE DERIVATIVE AND INTERMEDIATE THEREOF, HERBICIDE CONTAINING SAID DERIVATIVE AS ACTIVE INGREDIENT, METHOD FOR USING HERBICIDE, AND METHOD FOR PREPARING AGROCHEMICAL COMPOSITION” (HOKKO CHEMICAL INDUSTRY CO., LTD., priority 2023, dated 2024)

Assays:
Type in all cases: in vivo
[1] = test system: Digitaria ciliaris; experiment: Test Example 4: herbicidal effect test by stem and leaf treatment in upland field; conditions: Digitaria ciliaris; 120 g per 10 ares; sprayed seven days after sowing, upland soil; 14 days after application; read-out: weed inhibition rate
Description: (§1) The present test was conducted in duplicate for each chemical concentration group, and the weed inhibition rate (%) was determined 14 days after chemical application using the following formula (Math. 1). [formula]
(§2) Pots with an area of 36 cm^2 were filled with upland soil (alluvial loam), twenty seeds each of weeds of Digitaria ciliaris, Echinochloa crus-galli, and Amaranthus viridis were uniformly mixed with the top 1 cm layer of soil and the surface was lightly pressed down. Seven days after sowing, an emulsifiable concentrate prepared according to Formulation Example 5 using the compound shown below was diluted with water, and the diluted solution was sprayed onto the soil surface at a rate of 100 liters per 10 ares. The amount of the active ingredient to be applied was equivalent to 120 g per 10 ares. Fourteen days after chemical application, the herbicidal effect was evaluated according to the same criteria as in Test Example 1.

[2] = test system: Echinochloa crus-galli; experiment: as above; conditions: Echinochloa crus-galli; 120 g per 10 ares; sprayed seven days after sowing, upland soil; 14 days after application; read-out: weed inhibition rate
[3] = test system: Echinochloa crus-galli var. formosensis; experiment: Test Example 1: herbicidal effect test by soil application in paddy rice; conditions: Echinochloa crus-galli, soil, 336 h; 120 g active ingredient per 10 ares; applied immediately after sowing, flooded pots; 14 days after application; read-out: weed inhibition rate
Description: Wagner pots with an area of […] were filled with paddy soil, followed by addition of water and incorporation of chemical fertilizer (N:P:K = 16:16:16), after which puddling was performed. After that, seeds of Echinochloa crus-galli var. formosensis, broad-leaved weeds ([…] Monochoria vaginalis), and Scirpus juncoides were sown at a depth of 0 cm to 1 cm, 30 seeds each. Immediately after sowing, the pots were flooded and a water depth of approximately 3 cm was maintained. Subsequent management was conducted in a glass greenhouse. Immediately thereafter, an emulsifiable concentrate prepared according to Formulation Example 5 using the compound shown below was diluted with water, and a specified amount of the diluted solution was applied by dropper. The amount of the active ingredient to be applied was equivalent to 120 g per 10 ares.

[4] = test system: Echinochloa crus-galli var. formosensis; experiment: Test Example 2: herbicidal effect test by application during growth period of paddy rice; conditions: Echinochloa crus-galli; 120 g per 10 ares; applied seven days after sowing, flooded pots; 14 days after application; read-out: weed inhibition rate
Description: as §1
Wagner pots with an area of […] were filled with paddy soil, followed by addition of water and incorporation of chemical fertilizer (N:P:K = 16:16:16), after which puddling was performed. After that, seeds of Echinochloa crus-galli var. formosensis, broad-leaved weeds (Monochoria vaginalis), and Scirpus juncoides were sown at a depth of 0 cm to 1 cm, 30 seeds each. Immediately after sowing, the pots were flooded and a water depth of approximately 3 cm was maintained. Subsequent management was conducted in a glass greenhouse. Seven days after sowing, an emulsifiable concentrate prepared according to Formulation Example 5 using the compound shown below was diluted with water, and a specified amount of the diluted solution was applied by dropper. The amount of the active ingredient to be applied was equivalent to 120 g per 10 ares. The test was conducted in duplicate for each chemical concentration group, and the herbicidal effect was evaluated 14 days after chemical application using the same criteria as in Test Example 1.

[5] = test system: Digitaria ciliaris; experiment: Test Example 3: herbicidal effect test by soil application in upland field; conditions: Digitaria ciliaris, 120 g per 10 ares, sprayed one day after sowing, 14 days after application, read-out: weed inhibition rate
Description: as §1
as §2, with “crus-galli, Chenopodium album,” for “crus-galli,”, “One day” for “Seven days”

[6] = test system: Echinochloa crus-galli; experiment: as above; conditions: Echinochloa crus-galli, 120 g per 10 ares, sprayed one day after sowing, 14 days after application, read-out: weed inhibition rate
Description: as §1
as §2, with “crus-galli, Chenopodium album,” for “crus-galli,”, “One day” for “Seven days”

Cc1ccc(COC2CC3(C(C)C)OC2(C)CC3Br)cc1 (stereo not drawn) [1-1345, 5-bromo-1-methyl-2-[(4-methylphenyl)methoxy]-4-isopropyl-7-oxabicyclo[2.2.1]heptane]
≥ 80%: inhibition at 1200 g/ha [1] | inhibition at 1200 g/ha [2] | pest or weed control at 1200 g/ha [3] | inhibition at 1200 g/ha [4] | inhibition at 1200 g/ha [5] | inhibition at 1200 g/ha [6]

CCc1ccccc1COC1CC2(C(C)C)OC1(C)CC2Br (stereo not drawn) [1-1346, 5-bromo-2-[(2-ethylphenyl)methoxy]-1-methyl-4-isopropyl-7-oxabicyclo[2.2.1]heptane]
≥ 80%: inhibition at 1200 g/ha [1] | inhibition at 1200 g/ha [2] | pest or weed control at 1200 g/ha [3] | inhibition at 1200 g/ha [4] | inhibition at 1200 g/ha [5] | inhibition at 1200 g/ha [6]

COc1cccc(COC2CC3(C(C)C)OC2(C)CC3Br)c1 (stereo not drawn) [1-1350, 5-bromo-2-[(3-methoxyphenyl)methoxy]-1-methyl-4-isopropyl-7-oxabicyclo[2.2.1]heptane]
≥ 80%: inhibition at 1200 g/ha [1] | inhibition at 1200 g/ha [2] | pest or weed control at 1200 g/ha [3] | inhibition at 1200 g/ha [4] | inhibition at 1200 g/ha [5] | inhibition at 1200 g/ha [6]

COc1ccc(COC2CC3(C(C)C)OC2(C)CC3Br)cc1 (stereo not drawn) [1-1351, 5-bromo-2-[(4-methoxyphenyl)methoxy]-1-methyl-4-isopropyl-7-oxabicyclo[2.2.1]heptane]
≥ 80%: inhibition at 1200 g/ha [1] | inhibition at 1200 g/ha [2] | pest or weed control at 1200 g/ha [3] | inhibition at 1200 g/ha [4] | inhibition at 1200 g/ha [5] | inhibition at 1200 g/ha [6]

CC(C)C12CC(OCc3ccccc3OC(F)(F)F)C(C)(CC1Br)O2 (stereo not drawn) [1-1352, 5-bromo-1-methyl-4-isopropyl-2-[[2-(trifluoromethoxy)phenyl]methoxy]-7-oxabicyclo[2.2.1]heptane]
≥ 80%: inhibition at 1200 g/ha [1] | inhibition at 1200 g/ha [2] | pest or weed control at 1200 g/ha [3] | inhibition at 1200 g/ha [4] | inhibition at 1200 g/ha [5] | inhibition at 1200 g/ha [6]

CC(C)C12CC(OCc3cccc(F)c3)C(C)(CC1Br)O2 (stereo not drawn) [1-1356, 5-bromo-2-[(3-fluorophenyl)methoxy]-1-methyl-4-isopropyl-7-oxabicyclo[2.2.1]heptane]
≥ 80%: inhibition at 1200 g/ha [1] | inhibition at 1200 g/ha [2] | pest or weed control at 1200 g/ha [3] | inhibition at 1200 g/ha [4] | inhibition at 1200 g/ha [5] | inhibition at 1200 g/ha [6]

CC(C)C12CC(OCc3cccc(Cl)c3)C(C)(CC1Br)O2 (stereo not drawn) [1-1359, 5-bromo-2-[(3-chlorophenyl)methoxy]-1-methyl-4-isopropyl-7-oxabicyclo[2.2.1]heptane]
≥ 80%: inhibition at 1200 g/ha [1] | inhibition at 1200 g/ha [2] | pest or weed control at 1200 g/ha [3] | inhibition at 1200 g/ha [4] | inhibition at 1200 g/ha [5] | inhibition at 1200 g/ha [6]

CC(C)C12CC(OCc3ccc(Cl)cc3)C(C)(CC1Br)O2 (stereo not drawn) [1-1360, 5-bromo-2-[(4-chlorophenyl)methoxy]-1-methyl-4-isopropyl-7-oxabicyclo[2.2.1]heptane]
≥ 80%: inhibition at 1200 g/ha [1] | inhibition at 1200 g/ha [2] | pest or weed control at 1200 g/ha [3] | inhibition at 1200 g/ha [4] | inhibition at 1200 g/ha [5] | inhibition at 1200 g/ha [6]

CC(C)C12CC(OCc3cccc(Br)c3)C(C)(CC1Br)O2 (stereo not drawn) [1-1362, 5-bromo-2-[(3-bromophenyl)methoxy]-1-methyl-4-isopropyl-7-oxabicyclo[2.2.1]heptane]
≥ 80%: inhibition at 1200 g/ha [1] | inhibition at 1200 g/ha [2] | pest or weed control at 1200 g/ha [3] | inhibition at 1200 g/ha [4] | inhibition at 1200 g/ha [5] | inhibition at 1200 g/ha [6]

CC(C)C12CC(OCc3ccc(Br)cc3)C(C)(CC1Br)O2 (stereo not drawn) [1-1363, 5-bromo-2-[(4-bromophenyl)methoxy]-1-methyl-4-isopropyl-7-oxabicyclo[2.2.1]heptane]
≥ 80%: inhibition at 1200 g/ha [1] | inhibition at 1200 g/ha [2] | pest or weed control at 1200 g/ha [3] | inhibition at 1200 g/ha [4] | inhibition at 1200 g/ha [5] | inhibition at 1200 g/ha [6]
